Patent US6509369B2, “Anti-inflammatory compounds” (Ortho-McNeil Pharmaceutical, Inc., priority 1997, dated 2003)

The compounds below were run against T1, human glucocorticoid receptor (hGR) (Homo sapiens, UniProt P04150) (assay: human glucocorticoid receptor binding assay (displacement of 3(H) Triamcinolone acetonide)). Settings: not given.
T1 construct: made in house; host or cells: Sf21 insect cells infected with baculovirus hGR, OR IM9 lymphoblast cell line (endogenous hGR)
T1 sequence (P04150 1-777): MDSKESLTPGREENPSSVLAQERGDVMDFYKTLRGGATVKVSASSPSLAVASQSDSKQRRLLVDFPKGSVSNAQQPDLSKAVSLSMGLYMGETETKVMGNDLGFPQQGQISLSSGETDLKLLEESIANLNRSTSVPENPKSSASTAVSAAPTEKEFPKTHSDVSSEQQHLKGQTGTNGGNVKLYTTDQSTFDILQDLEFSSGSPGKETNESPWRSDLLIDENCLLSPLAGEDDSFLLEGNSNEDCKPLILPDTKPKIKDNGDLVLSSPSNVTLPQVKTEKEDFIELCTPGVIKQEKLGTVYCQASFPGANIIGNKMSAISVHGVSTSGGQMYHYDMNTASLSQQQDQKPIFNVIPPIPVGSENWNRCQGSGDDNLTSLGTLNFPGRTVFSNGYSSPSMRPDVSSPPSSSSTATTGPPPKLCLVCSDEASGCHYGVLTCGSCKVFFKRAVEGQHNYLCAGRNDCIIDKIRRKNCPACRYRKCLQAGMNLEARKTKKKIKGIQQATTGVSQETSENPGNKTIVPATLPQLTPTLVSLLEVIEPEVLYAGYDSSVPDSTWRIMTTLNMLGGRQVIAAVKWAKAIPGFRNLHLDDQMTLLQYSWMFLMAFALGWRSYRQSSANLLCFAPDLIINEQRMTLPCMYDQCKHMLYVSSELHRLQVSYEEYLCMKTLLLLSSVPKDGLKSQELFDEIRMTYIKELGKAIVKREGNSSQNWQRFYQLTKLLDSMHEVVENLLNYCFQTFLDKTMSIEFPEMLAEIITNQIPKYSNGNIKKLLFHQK
Method: A human glucocorticoid receptor binding assay was carried out to determine the extent to which the compounds of this invention have the ability to bind to human glucocorticoid receptors. This binding ability may be indicative of the antiinflammatory activity of the compound. The test was carried out as follows.
Human glucocorticoid receptors were prepared from either insect cells (Sf21) infected with baculovirus hGR or from a lymphoblast cell line which expresses high levels of endogenous hGR (IM9). The receptor binding reactions, with or without test compounds, were set up in 96-well microtiter plates which were previously siliconized with SIGMACOTE™, a chlorinated organopolysiloxane in heptane. The binding components, 3(H) Triamcinolone acetonide (TAA), glycerol/molybdate-containing buffer and unlabeled compounds were added to the wells using a combination of BIOMEK laboratory automation system and repeat pipettes. After four hours of incubation, the samples were precipitated with polyethylene glycol and filtered through Whatman GF/F paper using a TOMTEK cell harvester. The filter mate with 96 samples were bound to a solid-phase scintillant and directly counted in a BETAPLATE counter. […] The activity of test compounds to displace 3(H) TAA binding to hGR is also expressed as percent inhibition at 1 μM.
For `O=C(Cc1ccccc1Cl)NCC(c1ccccc1)C(c1ccc(F)cc1)c1ccc(F)cc1` (stereo not shown) [Compound 16], the IC50 was 45 nM. `COc1ccccc1CCC(=O)NCC(c1ccccc1)C(c1ccc(F)cc1)c1ccc(F)cc1` (stereo not shown) [Compound 23] showed an IC50 of 22 nM.

Same assay, conditions: concentration not given
With `COc1ccccc1CC(=O)NCC(c1ccccc1)C(c1ccccc1)c1ccccc1` (stereo not shown) [Compound 5] the “hGR, value given as %” value was 62%. `O=C(Cc1ccccc1Cl)NCC(c1ccccc1)C1c2ccccc2-c2ccccc21` (stereo not shown) [Compound 68] was tested, and the “hGR, value given as %” value was 46%. In the case of `O=C(Cc1ccccc1C(F)(F)F)NCC(c1ccccc1)C1c2ccccc2-c2ccccc21` (stereo not shown) [Compound 69], the “hGR, value given as %” value is reported as 15%. With `Cc1ccc(C(=O)NCC(c2ccccc2)C2c3ccccc3-c3ccccc32)s1` (stereo not shown) [Compound 72] the “hGR, value given as %” value was 33%.

These compounds were tested on oxazolone-induced ear swelling (MOCH) in albino male CD-1 mice (assay: mouse oxazolone-induced contact hypersensitization (MOCH) ear swelling). Settings: mouse, in vivo.
Format: in vivo
Design: % Inhibition MOCH: concentration or dose not given beside the values
Method: Several triphenylpropanamide compounds of this invention, having varying affinities for the human glucocorticoid receptor, were tested for topical antiinflammatory activity in mouse ear inflammation models. […] Compounds having receptor affinities closer to hydrocortisone were as nearly active as hydrocortisone in suppressing mouse oxazolone-induced contact hypersensitization (MOCH) and phorbol ester-induced ear edema. The in vivo studies of this example were conducted as follows.
In determining the MOCH using the compounds of this invention, albino male CD-1 mice, 7-9 weeks old were induced on the shaved abdomen with 50 μl of 3% oxazolone in acetone/corn oil (Day 0). On Day 5, a 20 μl volume of 2% oxazolone in acetone was applied to the dorsal left ear of the mouse . Compounds (made in ethanol/propylene glycol, 70:30) were applied to the left ear in 20 μl volume, one hour after oxazolone challenge. The right ear was not treated. The mice were sacrificed by carbon dioxide inhalation 24 hours after oxazolone challenge, the left and right ears were removed and a 7 mm biopsy was removed from each ear and weighed. The difference in biopsy weights between the right and left ears was calculated. Antiinflammatory effects of compounds were evident as an inhibition of the increase in ear weight.
For `O=C(Cc1ccc(Cl)cc1Cl)NCC(c1ccc2c(c1)OCO2)C(c1ccccc1)c1ccccc1` (stereo not shown) [Compound 112], the “% Inhibition MOCH” value was 36%. `O=C(Cc1ccc(Cl)c(Cl)c1)NCC(c1ccc2c(c1)OCO2)C(c1ccccc1)c1ccccc1` (stereo not shown) [Compound 113] was tested, and the “% Inhibition MOCH” value was 31%. `O=C(CSc1ccccc1)NCC(c1ccc2c(c1)OCO2)C(c1ccccc1)c1ccccc1` (stereo not shown) [Compound 114] was tested, and the “% Inhibition MOCH” value was 41%. In the case of `O=C(NCC(c1ccc2c(c1)OCO2)C(c1ccccc1)c1ccccc1)c1ccsc1` (stereo not shown) [Compound 115], the “% Inhibition MOCH” value is reported as 28%. For `O=C(NCC(c1ccc2c(c1)OCO2)C(c1ccccc1)c1ccccc1)c1cccs1` (stereo not shown) [Compound 116], the “% Inhibition MOCH” value was 62%. In the case of `O=C(NCC(c1ccc2c(c1)OCO2)C(c1ccccc1)c1ccccc1)c1ccccc1` (stereo not shown) [Compound 117], the “% Inhibition MOCH” value is reported as 28%. For `COc1ccccc1C(=O)NCC(c1ccc2c(c1)OCO2)C(c1ccccc1)c1ccccc1` (stereo not shown) [Compound 118], the “% Inhibition MOCH” value was 38%. `O=C(NCC(c1ccc2c(c1)OCO2)C(c1ccccc1)c1ccccc1)c1cc2ccccc2[nH]1` (stereo not shown) [Compound 119] was tested, and the “% Inhibition MOCH” value was 31%. `O=C(NCC(c1ccc2c(c1)OCO2)C(c1ccccc1)c1ccccc1)c1cc(C(F)(F)F)cc(C(F)(F)F)c1` (stereo not shown) [Compound 120] was tested, and the “% Inhibition MOCH” value was 27%. `O=C(NCC(c1ccc2c(c1)OCO2)C(c1ccccc1)c1ccccc1)c1cccc([N+](=O)[O-])c1` (stereo not shown) [Compound 121] was tested, and the “% Inhibition MOCH” value was 10%. `Cc1ccc(C(=O)NCC(c2ccc3c(c2)OCO3)C(c2ccccc2)c2ccccc2)cc1[N+](=O)[O-]` (stereo not shown) [Compound 122] was tested, and the “% Inhibition MOCH” value was 33%. `N#Cc1cccc(C(=O)NCC(c2ccc3c(c2)OCO3)C(c2ccccc2)c2ccccc2)c1` (stereo not shown) [Compound 123] was tested, and the “% Inhibition MOCH” value was 51%. With `O=C(CCc1ccccc1)NCC(c1ccc2c(c1)OCO2)C(c1ccccc1)c1ccccc1` (stereo not shown) [Compound 124] the “% Inhibition MOCH” value was 35%. For `CC(C)(C)c1ccc(C(=O)NCC(c2ccc3c(c2)OCO3)C(c2ccccc2)c2ccccc2)cc1` (stereo not shown) [Compound 125], the “% Inhibition MOCH” value was 31%. With `Cc1ccc(C(=O)NCC(c2ccc3c(c2)OCO3)C(c2ccccc2)c2ccccc2)cc1` (stereo not shown) [Compound 126] the “% Inhibition MOCH” value was 46%. In the case of `O=C(NCC(c1ccc2c(c1)OCO2)C(c1ccccc1)c1ccccc1)c1ccc(F)cc1F` (stereo not shown) [Compound 127], the “% Inhibition MOCH” value is reported as 61%. In the case of `O=C(NCC(c1ccc2c(c1)OCO2)C(c1ccccc1)c1ccccc1)c1ccc(F)cc1` (stereo not shown) [Compound 128], the “% Inhibition MOCH” value is reported as 54%. For `O=C(NCC(c1ccc2c(c1)OCO2)C(c1ccccc1)c1ccccc1)c1ccccc1Cl` (stereo not shown) [Compound 129], the “% Inhibition MOCH” value was 41%. With `O=C(NCC(c1ccc2c(c1)OCO2)C(c1ccccc1)c1ccccc1)c1ccc(Cl)cc1` (stereo not shown) [Compound 130] the “% Inhibition MOCH” value was 37%. For `O=C(NCC(c1ccc2c(c1)OCO2)C(c1ccccc1)c1ccccc1)c1cc(Cl)cc(Cl)c1` (stereo not shown) [Compound 131], the “% Inhibition MOCH” value was 18%. `Cc1ccccc1C(=O)NCC(c1ccc2c(c1)OCO2)C(c1ccccc1)c1ccccc1` (stereo not shown) [Compound 133] was tested, and the “% Inhibition MOCH” value was 46%. In the case of `O=C(Cc1ccc(-c2ccccc2)cc1)NCC(c1ccc2c(c1)OCO2)C(c1ccccc1)c1ccccc1` (stereo not shown) [Compound 134], the “% Inhibition MOCH” value is reported as 29%. For `O=C(Cc1cccs1)NCC(c1ccc(C(F)(F)F)cc1)C(c1ccccc1)c1ccccc1` (stereo not shown) [Compound 135], the “% Inhibition MOCH” value was 31%. With `O=C(NCC(c1ccc(C(F)(F)F)cc1)C(c1ccccc1)c1ccccc1)c1cccs1` (stereo not shown) [Compound 136] the “% Inhibition MOCH” value was 38%. `O=C(NCC(c1ccc(C(F)(F)F)cc1)C(c1ccccc1)c1ccccc1)c1ccccc1Cl` (stereo not shown) [Compound 137] was tested, and the “% Inhibition MOCH” value was 45%. For `O=C(Cc1ccc(Cl)c(Cl)c1)NCC(c1ccc(C(F)(F)F)cc1)C(c1ccccc1)c1ccccc1` (stereo not shown) [Compound 138], the “% Inhibition MOCH” value was 33%. For `O=C(NCC(c1ccc(C(F)(F)F)cc1)C(c1ccccc1)c1ccccc1)c1ccc(Cl)cc1Cl` (stereo not shown) [Compound 139], the “% Inhibition MOCH” value was 42%. With `Cc1cccc(CC(=O)NCC(c2ccc(C(F)(F)F)cc2)C(c2ccccc2)c2ccccc2)c1` (stereo not shown) [Compound 140] the “% Inhibition MOCH” value was 57%. With `O=C(Cc1ccccc1)NCC(c1ccc(C(F)(F)F)cc1)C(c1ccccc1)c1ccccc1` (stereo not shown) [Compound 141] the “% Inhibition MOCH” value was 66%. `O=C(Cc1ccccn1)NCC(c1ccc(C(F)(F)F)cc1)C(c1ccccc1)c1ccccc1` (stereo not shown) [Compound 142] was tested, and the “% Inhibition MOCH” value was 39%. With `CSc1ccc(CC(=O)NCC(c2ccc(C(F)(F)F)cc2)C(c2ccccc2)c2ccccc2)cc1` (stereo not shown) [Compound 143] the “% Inhibition MOCH” value was 19%. For `COc1cc(Cl)ccc1C(=O)NCC(c1ccc(C(F)(F)F)cc1)C(c1ccccc1)c1ccccc1` (stereo not shown) [Compound 144], the “% Inhibition MOCH” value was 33%. In the case of `O=C(Cc1cc2cc(Cl)ccc2s1)NCC(c1ccc(C(F)(F)F)cc1)C(c1ccccc1)c1ccccc1` (stereo not shown) [Compound 145], the “% Inhibition MOCH” value is reported as 54%. With `O=C(Cc1ccccc1Cl)NCC(c1ccc(C(F)(F)F)cc1)C(c1ccccc1)c1ccccc1` (stereo not shown) [Compound 146] the “% Inhibition MOCH” value was 39%. In the case of `O=C(Cc1ccc(F)cc1F)NCC(c1ccc(C(F)(F)F)cc1)C(c1ccccc1)c1ccccc1` (stereo not shown) [Compound 147], the “% Inhibition MOCH” value is reported as 55%. `COc1ccccc1CC(=O)NCC(c1ccc(C(F)(F)F)cc1)C(c1ccccc1)c1ccccc1` (stereo not shown) [Compound 148] was tested, and the “% Inhibition MOCH” value was 42%. For `COc1cc(CC(=O)NCC(c2ccc(C(F)(F)F)cc2)C(c2ccccc2)c2ccccc2)cc(OC)c1` (stereo not shown) [Compound 149], the “% Inhibition MOCH” value was 42%.

Same assay, conditions: topical to mouse ear, 1 mg, one hour after oxazolone challenge, ear biopsy weight at 24 hours
`COc1ccccc1CC(=O)NCC(c1ccccc1)C(c1ccccc1)c1ccccc1` (stereo not shown) [Compound 5] was tested, and the “Oxazolone Ear Swelling (MOCH) % inhibition vs. Vehicle at 1 mg” value was 13%. `O=C(Cc1ccccc1Cl)NCC(c1ccccc1)C1c2ccccc2-c2ccccc21` (stereo not shown) [Compound 68] was tested, and the “Oxazolone Ear Swelling (MOCH) % inhibition vs. Vehicle at 1 mg” value was 28%. With `O=C(Cc1ccccc1C(F)(F)F)NCC(c1ccccc1)C1c2ccccc2-c2ccccc21` (stereo not shown) [Compound 69] the “Oxazolone Ear Swelling (MOCH) % inhibition vs. Vehicle at 1 mg” value was 43%. `Cc1ccc(C(=O)NCC(c2ccccc2)C2c3ccccc3-c3ccccc32)s1` (stereo not shown) [Compound 72] was tested, and the “Oxazolone Ear Swelling (MOCH) % inhibition vs. Vehicle at 1 mg” value was 50%.

Same assay, conditions: topical, mouse ear
With `O=C(Cc1ccccc1Cl)NCC(c1ccccc1)C(c1ccc(F)cc1)c1ccc(F)cc1` (stereo not shown) [Compound 16] the “topical antiinflammatory activity in the oxazolone model (in words)” value was “moderate topical activity”. In the case of `COc1ccccc1CCC(=O)NCC(c1ccccc1)C(c1ccc(F)cc1)c1ccc(F)cc1` (stereo not shown) [Compound 23], the “topical antiinflammatory activity in the oxazolone model (in words)” value is reported as “moderate topical activity”.
